Experimental findings from patent US20240358847A1, “TROP2 BINDERS AND CONJUGATES THEREOF” (MERCK SHARP & DOHME LLC, priority 2023, published 2024) are described below.

In one test the test system is MDA-MB-231-KWL cells. Put plainly: On-Cell ELISA binding, MDA-MB-231-KWL cells (TROP2 low). The format is cell-based. The note with it: for AUC (MDA-MB-231-KWL): area under On-Cell ELISA binding curve; for EC50: read-out: MDA-MB-231-KWL EC50, On-Cell ELISA, TROP2 low cells. Set-up: AUC (MDA-MB-231-KWL): unit not given beside the values. The protocol:
(§1) Cell lines expressing TROP2.
(§2) Cells were plated in duplicate onto 96-well plates, and primary antibody was diluted in cell culture medium with a starting concentration of 30 μg/mL (200 nM) with a dilution factor of 1:5. After 3× wash, secondary antibody was added for 1 hour at 1 ug/ml, washed three times and absorbance was measured at 450 nm. Data was plotted and analyzed. EC50 ([…]) was measured along with area under the curve (AUC) for each cell line.

A further test has as its system BxPC-3 cells. Put plainly: On-Cell ELISA binding, BxPC3 cells (TROP2 high). Also on record: AUC (BxPC-3): unit not given beside the values. The following applies: for ΔAUC: AUC (BxPC-3) minus AUC (MDA-MB-231-KWL); for AUC (BxPC-3): area under On-Cell ELISA binding curve; for ΔAUC/AUC (BxPC-3): differential BxPC3 vs MDA-MB-231-KWL; for EC50: On-Cell ELISA, TROP2 high cells. The class given is cell-based, human. As to the method:
as §1, §2

As for “mAb_LC_Hm_S103T: Sacituzumab HC S103T mutein, Sacituzumab LC”, the “AUC (MDA-MB-231-KWL)” value in the test with MDA-MB-231-KWL cells turned out to be 33.66. Besides, in the test on BxPC-3 cells, the ΔAUC turned out to be 171.04, the “AUC (BxPC-3)” value was found to be 204.7 and the “ΔAUC/AUC (BxPC-3)” value was 0.538.

“mAb_Lm_Y92E_HC: Sacituzumab LC Y92E mutein, Sacituzumab HC” had a concentration for a half-maximal effect (EC50) in the test on BxPC-3 cells of 6.95 nM.

“mAb_LC_Hm_W106L: Sacituzumab HC W106L mutein, Sacituzumab LC”: a half-maximal response with BxPC-3 cells (EC50) required 0.326 nM.

On to “mAb_LC_Hm_F29G: Sacituzumab HC F29G mutein, Sacituzumab LC”, for which the EC50 in the test with MDA-MB-231-KWL cells is 0.448 nM; in the test with BxPC-3 cells, 0.32 nM.

Regarding “mAb_Lm_I93G_HC: Sacituzumab LC I93G mutein, Sacituzumab HC”, the figures for the concentration giving a half-maximal response (EC50) in the test with MDA-MB-231-KWL cells and in the test on BxPC-3 cells were 0.221 nM and 0.182 nM, respectively.

As for “mAb_Lm_T94F_HC: Sacituzumab LC T94F mutein, Sacituzumab HC”, the results for the EC50 in the test on MDA-MB-231-KWL cells and with BxPC-3 cells were 0.374 nM and 0.233 nM, respectively.

As for “mAb_LC_Hm_F108Q: Sacituzumab HC F108Q mutein, Sacituzumab LC”, the EC50 with MDA-MB-231-KWL cells is 0.365 nM; in the test on BxPC-3 cells, 0.316 nM.

For “mAb_LC_Hm_Y107N: Sacituzumab HC Y107N mutein, Sacituzumab LC”, the EC50 in the test with MDA-MB-231-KWL cells stood at 1.88 nM; in the test on BxPC-3 cells, 0.715 nM.

With “mAb_Lm_Y53P_HC: Sacituzumab LC Y53P mutein, Sacituzumab HC”, the figures for the EC50 with MDA-MB-231-KWL cells and in the test with BxPC-3 cells were 0.629 nM and 0.218 nM, respectively.

For the substance “mAb_Lm_V29R_HC: Sacituzumab LC V29R mutein, Sacituzumab HC”, the concentration for a half-maximal effect (EC50) in the test on BxPC-3 cells is 0.285 nM.

Regarding “mAb_Lm_Q89V_HC: Sacituzumab LC Q89V mutein, Sacituzumab HC”, the figures for the half-maximal effective concentration (EC50) with MDA-MB-231-KWL cells and with BxPC-3 cells were 8.46 nM and 1.68 nM, respectively.

Regarding “mAb_Lm_A32P_HC: Sacituzumab LC A32P mutein, Sacituzumab HC”, the response in the test on BxPC-3 cells was half-maximal at 0.922 nM (EC50).

Turning to “mAb_LC_Hm_G33I: Sacituzumab HC G33I mutein, Sacituzumab LC”, the concentration giving a half-maximal response (EC50) in the test on MDA-MB-231-KWL cells came out at 0.768 nM; with BxPC-3 cells, 0.217 nM.

On to “mAb_Lm_S30R_HC: Sacituzumab LC S30R mutein, Sacituzumab HC”, for which the EC50 in the test with BxPC-3 cells is 0.697 nM.

As to “mAb_Lm_A32Q_HC: Sacituzumab LC A32Q mutein, Sacituzumab HC”, in the test with BxPC-3 cells, the response was half-maximal at 18.4 nM (EC50).

Regarding “mAb_LC_Hm_F101T: Sacituzumab HC F101T mutein, Sacituzumab LC”, the figures for the EC50 in the test with MDA-MB-231-KWL cells and with BxPC-3 cells were 0.871 nM and 0.336 nM, respectively.

As to “mAb_Lm_Y53R_HC: Sacituzumab LC Y53R mutein, Sacituzumab HC”, the values for the concentration for a half-maximal effect (EC50) with MDA-MB-231-KWL cells and in the test on BxPC-3 cells were 0.546 nM and 0.357 nM, respectively.

For “mAb_LC_Hm_F108T: Sacituzumab HC F108T mutein, Sacituzumab LC”, the half-maximal effective concentration (EC50) in the test on MDA-MB-231-KWL cells was found to be 1.2 nM; with BxPC-3 cells, 0.681 nM.

Consider “mAb_Lm_Y53N_HC: Sacituzumab LC Y53N mutein, Sacituzumab HC”, for which the EC50 in the test with MDA-MB-231-KWL cells is 0.843 nM; in the test on BxPC-3 cells it was 0.225 nM.

In turn, “mAb_Lm_Y92A_HC: Sacituzumab LC Y92A mutein, Sacituzumab HC” returned a 50% effective concentration (EC50) with BxPC-3 cells of 9.2 nM.

“mAb_LC_Hm_W106A: Sacituzumab HC W106A mutein, Sacituzumab LC”: the EC50 in the test with BxPC-3 cells was found to be 1.68 nM.

In the case of “mAb_LC_Hm_W106H: Sacituzumab HC W106H mutein, Sacituzumab LC”, the “AUC (MDA-MB-231-KWL)” value in the test with MDA-MB-231-KWL cells was found to be 22.73. Also, in the test with BxPC-3 cells, the ΔAUC stood at 192.47, the 50% effective concentration (EC50) is 1.16 nM, the “AUC (BxPC-3)” value is listed as 215.2 and the “ΔAUC/AUC (BxPC-3)” value is 0.605.

In turn, “mAb_LC_Hm_S104D: Sacituzumab HC S104D mutein, Sacituzumab LC” yielded an EC50 in the test on BxPC-3 cells of 0.214 nM.

In the case of “mAb_LC_Hm_Y105S: Sacituzumab HC Y105S mutein, Sacituzumab LC”, it took 0.312 nM to reach a half-maximal effect with BxPC-3 cells (EC50).

Consider “mAb_Lm_Y53D_HC: Sacituzumab LC Y53D mutein, Sacituzumab HC; HC SEQ ID NO: 11, LC SEQ ID NO: 13”, for which the concentration for a half-maximal effect (EC50) in the test with MDA-MB-231-KWL cells was found to be 4.89 nM; in the test on BxPC-3 cells, 0.238 nM.

“mAb_LC_Hm_N31P: Sacituzumab HC N31P mutein, Sacituzumab LC”: the half-maximal effective concentration (EC50) is 1.16 nM in the test on MDA-MB-231-KWL cells and 0.369 nM in the test with BxPC-3 cells.

The substance “mAb_Lm_S50L_HC: Sacituzumab LC S50L mutein, Sacituzumab HC” registered an EC50 with BxPC-3 cells of 23.8 nM.

As for “mAb_Lm_Y92N_HC: Sacituzumab LC Y92N mutein, Sacituzumab HC”, the EC50 in the test with BxPC-3 cells was 0.839 nM.

Take “mAb_LC_Hm_Y32E: Sacituzumab HC Y32E mutein, Sacituzumab LC”: the half-maximal effective concentration (EC50) in the test with MDA-MB-231-KWL cells turned out to be 1.58 nM; with BxPC-3 cells, 0.416 nM.

In the case of “mAb_LC_Hm_F108S: Sacituzumab HC F108S mutein, Sacituzumab LC”, the EC50 with MDA-MB-231-KWL cells was 0.651 nM; in the test with BxPC-3 cells, 0.321 nM.

For “mAb_Lm_H91K_HC: Sacituzumab LC H91K mutein, Sacituzumab HC”, the values for the concentration for a half-maximal effect (EC50) in the test with MDA-MB-231-KWL cells and in the test on BxPC-3 cells were 1.96 nM and 0.899 nM, respectively.

With “mAb_Lm_D28H_HC: Sacituzumab LC D28H mutein, Sacituzumab HC”, the EC50 in the test with MDA-MB-231-KWL cells turned out to be 0.136 nM; in the test on BxPC-3 cells, 0.159 nM.

In the test on BxPC-3 cells, “mAb_Lm_H91Y_HC: Sacituzumab LC H91Y mutein, Sacituzumab HC” gave an EC50 of 3.56 nM.

“mAb_Lm_Y53V_HC: Sacituzumab LC Y53V mutein, Sacituzumab HC”: the EC50 with MDA-MB-231-KWL cells turned out to be 0.343 nM; in the test with BxPC-3 cells it was 0.225 nM.

Turning to “mAb_Lm_Y53S_HC: Sacituzumab LC Y53S mutein, Sacituzumab HC”, the half-maximal effective concentration (EC50) worked out at 0.304 nM in the test with MDA-MB-231-KWL cells and 0.28 nM in the test on BxPC-3 cells.

For the substance “mAb_Lm_S50T_HC: Sacituzumab LC S50T mutein, Sacituzumab HC”, the EC50 with MDA-MB-231-KWL cells came out at 0.568 nM; with BxPC-3 cells it was 0.222 nM.

In the case of “mAb_LC_Hm_F101E: Sacituzumab HC F101E mutein, Sacituzumab LC”, the 50% effective concentration (EC50) worked out at 2.69 nM in the test with MDA-MB-231-KWL cells and 0.482 nM in the test with BxPC-3 cells.

“mAb_LC_Hm_G33S: Sacituzumab HC G33S mutein, Sacituzumab LC” displayed an EC50 in the test with BxPC-3 cells of 2.24 nM.
